Assays:
in vitro = settings: PAMPA, 5 h, 20 μM, pH 7.4
Procedure: Samples were run in quadruplicate.
Oral administration is noninvasive and is preferred for chronical diseases such as Alzheimer's disease and other CNS disorders. […] In the PAMPA model, the amount of target compounds diffused from a donor compartment to an acceptor compartment through a tri-layer phospholipid pre-coated membrane are measured to assess oral-absorption potential of drug candidates. In the present study, 1, 4, 9, 17, 21 and 30 were evaluated with the PAMPA assay.

amyloid plaques = assay: Thioflavin-S staining of brain plaques; type: in vivo, mouse; design: dose or concentration left out as unconfirmed; settings: more pronounced with increasing dose
Procedure: The backgrounds of all mice (APP/PS1 dual transgenic mice and wild-type mice with littermates) were C57/B6. Transgenic mice were randomly divided into three groups (n=20 for each group), and wild-type mice were used as controls (n=20). […] Throughout the study-period, animals were housed in a controlled environment (temperature, 22° C.; humidity, 50-60%, 12-hour light/12-hour dark schedules), with free access to rodent chow and water. After a Morris water maze test, mice were perfused with cold phosphate-buffered saline (PBS), brain tissues were dissected and kept frozen at −80° C. until further analysis. […] The brain tissue was then embedded in an OCT agent and placed at −80° C. for storage until use. […] The Thio-S staining procedure was according to known methods (Maiti, et al. (2016) Histochem. Cell Biol. 146(5):609-625). Briefly, Thio-S solution at 0.1% (w/v) was prepared by dissolving 0.1 gram of Thioflavin-S(Sigma-Aldrich) in 50% ethanol (v/v). The tissue sections were washed three times with PBS for five minutes each time. The sections were incubated with 0.1% Thio-S for 10 minutes, dipping them three times in 50% ethanol (v/v) for 10 minutes each time, and finally washing once in PBS, before being mounted, as described above. The sections were visualized using a fluorescence microscope (Leica, Germany), with excitation/emission filters (480/550 nm).

SMILES: O=c1cc(-c2ccc(O)c(O)c2)oc2cc(O)c([C@@H]3O[C@H](CO)[C@@H](O)[C@H](O)[C@H]3O)c(O)c12 [Compound 1, isoorientin]
- Pe (in vitro): 0.51 ± 0.01 ×10^−6 cm/s
- R (percent recovery) (in vitro): 48%
- thioflavin-S-positive plaques (amyloid plaques): reduced

— patent US11254700B2, “GSK-3β inhibitors and use thereof in methods of treatment” (UNIVERSITY OF HAWAII, priority 2017, dated 2022)
